Measurements taken from publication PMC12308784, “Organometallic Half-Sandwich Complexes of 1,10-Phenanthroline Derivatives with Improved Solubility, Albumin-Binding, and Nanoformulation Potential Targeting Drug Resistance in Cancer” (Inorganic Chemistry, 2025).
Read-outs that look alike come from different tables or passages of the source.

Key:
[1] = n-octanol/water distribution coefficient, shake-flask; type: physicochemical; conditions: n-octanol/20 mM phosphate buffer, pH = 7.4, t = 25 °C; for logD at 4 h: n-octanol/buffered aqueous solution
Source text: The bioactive compounds must cross the cell membrane, which is influenced by their lipophilicity. Therefore, we characterized the lipophilicity of the complexes using n-octanol–water partitioning at three different chloride ion concentrations at pH 7.4. As the H2O/Cl^– exchange alters the charge of the complexes, it consequently affects their lipophilicity. The ratio of chlorido and aqua complexes depends on the actual Cl^– concentration and the chloride affinity of the complex. Chloride ion concentrations were chosen to mimic physiological conditions, specifically those found in blood (100 mM), cytosol (24 mM), and the nucleus (4 mM).
The traditional shake-flask method was used to obtain distribution coefficients of the ligands as well as of the complexes in n-octanol/buffered aqueous solution (20 mM phosphate, pH = 7.4) at different chloride ion concentrations (4, 24, and 100 mM) using UV–vis spectrophotometry (Agilent Cary 8454 diode array spectrophotometer) for the analysis. The compounds were dissolved in buffered aqueous solutions previously saturated with n-octanol. Then the aqueous and n-octanol phases were gently mixed in different volume ratios (using 1:60 for the ligands, 1:10 for the RhCp* and the RuCym complexes ratios of n-octanol to buffered aqueous solution volume) for 4 h, followed by phase separation. Then the UV–vis spectrum of the original aqueous sample and the aqueous and n-octanol phases was recorded and distribution coefficients (D) were calculated according to the formula described in our former work in detail.

MCF-7 = assay: PrestoBlue cytotoxicity assay; type: cell-based; conditions: for pIC50 (mean): Table S5
Protocol: (§1) MDA-MB-231 breast adenocarcinoma and MCF-7 and T-47D invasive breast carcinomas were purchased from the Developmental Therapeutic Program of the National Cancer Institute (NIH, USA), and they were cultured in RPMI medium (Thermo Fisher). MES–SA and MES–SA/Dx5 uterine sarcoma cell lines were purchased from American Type Culture Collection and were kept in DMEM (Thermo Fisher). MES–SA/B1 was created by the transfection of the human MDR1 gene in MES–SA, and MES–SA mCherry, MES–SA/B1 mOrange, and MES–SA/Dx5 eGFP were engineered to stably express the respective fluorescent proteins, as described previously. Culture media were supplemented with 10% fetal bovine serum, 2 mM L-glutamine, 100 units/mL penicillin, and 100 μg/mL streptomycin (Thermo Fisher). Cells were kept at 37 °C under 5% CO2 and were negative for mycoplasma infection.
(§2) Cytotoxicity of the nonfluorescent cancer cells (MDA-MB-231, MCF-7, T-47D) were assessed with PrestoBlue cell viability reagent (Thermo Fisher). Briefly, 2500 cells/well were seeded on 384-well plates, and then the next day drugs were added. After 72 h incubation, PrestoBlue was added in a 10% final concentration, and after an hour of additional incubation, plates were measured with a PerkinElmer EnSpire plate reader at 555 nm/585 nm excitation/emission wavelengths. Fluorescent cells (MES-SA mCherry, MES-SA/B1 mOrange, MES-SA/Dx5 eGFP) were admixed before seeding on 384-well plates at 800 cells/well density each, thus altogether 2400 cells/well. Drugs were added the following day, and the intensity of the fluorescent proteins were measured after 144 h incubation at the respective fluorescent channels (excitation/emission: eGFP: 485 nm/510 nm; mCherry: 585 nm/610 nm; mOrange: 545 nm/567 nm). pIC50 values were calculated by a custom program written by Judit Sessler in C#. IC50 values and standard deviation were calculated from average pIC50 values from at least 3 independent measurements. Since the IC50 values were obtained through nonlinear regression fitting of the viability vs. log(concentration) data, the resulting confidence intervals are inherently asymmetric (see pIC50 values and their corresponding SD in Tables S5 and S6).

MDA-MB-231 = assay: PrestoBlue cytotoxicity assay; type: cell-based; conditions: for pIC50 (mean): Table S5
Protocol: as §1, §2

T47D = assay: PrestoBlue cytotoxicity assay; type: cell-based; conditions: for pIC50 (mean): Table S5
Protocol: as §1, §2

[2] = test system: MDA-MB-231, MCF-7 and T-47D breast cancer cell lines; assay: PrestoBlue cytotoxicity, range over the three breast cancer lines; type: cell-based; conditions: MDA-MB-231, MCF-7, T-47D; 72 h
Protocol: The PHEN-derived ligands (DCP, BP) (together with PHEN for comparison) and the isolated complexes ([RuCym(DCP)-Cl]-Cl, [RhCp*(DCP)-Cl]-Cl, [RuCym(BP)-Cl]-Cl, [RhCp*(BP)-Cl]-Cl) were tested against the estrogen receptor (ER) negative MDA-MB-231, and the ER positive MCF-7 and T-47D breast cancer cell lines (Table , and Figure a for easier comparison).
as §1
as §2, with “measurements.” for “measurements. Since the IC50 values were obtained through nonlinear regression fitting of the viability vs. log(concentration) data, the resulting confidence intervals are inherently asymmetric (see pIC50 values and their corresponding SD in Tables S5 and S6).”

[3] = 72 h, 384-well plate, read-out: IC50
[4] = Homo sapiens, MCF7, 72 h, 384-well plate, read-out: IC50
[5] = Homo sapiens, MCF7, Table S5, read-out: pIC50 (mean) (converted)
[6] = Homo sapiens, 72 h, 384-well plate, read-out: IC50
[7] = Homo sapiens, Table S5, read-out: pIC50 (mean) (converted)

## Cc1ccc(C(C)C)cc1.[Cl-].[Cl-].[Ru+2].c1ccc(-c2ccnc3c2ccc2c(-c4ccccc4)ccnc23)cc1 [RuCymBP, [Ru(II)(η^6-p-cymene)(bathophenanthroline)Cl]Cl]
[1]; c(Cl–) = 4 mM
  logD: +1.46 ± 0.02
[1]; c(Cl–) = 24 mM
  logD: +1.97 ± 0.02
[1]; c(Cl–) = 100 mM
  logD: +2.48 ± 0.02
MCF-7; [3]
  IC50: 1.93 µM
MCF-7
  pIC50 (mean): 5.71
MDA-MB-231; [3]
  IC50: 1.23 µM
MDA-MB-231
  pIC50 (mean): 5.91
T47D; [3]
  IC50: 1.86 µM
T47D
  pIC50 (mean): 5.73
[2]
  IC50: 1.2 to 1.9 µM

## [Rh(III)(η^5-C5Me5)(bathophenanthroline)Cl]Cl [RhCp*BP]
[1]; c(Cl–) = 4 mM
  logD: +0.82 ± 0.01
[1]; c(Cl–) = 24 mM
  logD: +1.35 ± 0.03
MCF-7; [3]
  IC50: 14.9 µM
MCF-7
  pIC50 (mean): 4.83
MDA-MB-231; [3]
  IC50: 4.68 µM
MDA-MB-231
  pIC50 (mean): 5.33
T47D; [3]
  IC50: 5.28 µM
T47D
  pIC50 (mean): 5.28
[2]
  IC50: 4.7 to 14.9 µM

## Clc1ccnc2c1ccc1c(Cl)ccnc12 [DCP, 4,7-dichloro-1,10-phenanthroline]
[1]; c(Cl–) = 100 mM
  logD at 4 h: 2.4
MCF-7; [4]
  IC50: 3.84 µM
MCF-7; [5]
  IC50: 3.8 µM
MDA-MB-231; [6]
  IC50: 5.09 µM
MDA-MB-231; [7]
  IC50: 5.13 µM
T47D; [6]
  IC50: 4.29 µM
T47D; [7]
  IC50: 4.27 µM
[2]
  IC50: 3.8 to 5.1 µM

## Cc1ccc(C(C)C)cc1.Clc1ccnc2c1ccc1c(Cl)ccnc12.[Cl-].[Cl-].[Ru+2] [RuCymDCP, [Ru(II)(η^6-p-cymene)(4,7-dichloro-1,10-phenanthroline)Cl]Cl]
[1]; c(Cl–) = 4 mM
  logD: –0.55 ± 0.04
[1]; c(Cl–) = 24 mM
  logD: +0.04 ± 0.12
[1]; c(Cl–) = 100 mM
  logD: +0.35 ± 0.12
MCF-7; [3]
  IC50: 76.4 µM
MCF-7
  pIC50 (mean): 4.12
MDA-MB-231; [3]
  IC50: > 100 µM
T47D; [3]
  IC50: 75 µM
T47D
  pIC50 (mean): 4.13
[2]
  IC50: > 75 µM

## c1ccc(-c2ccnc3c2ccc2c(-c4ccccc4)ccnc23)cc1 [BP, 4,7-diphenyl-1,10-phenanthroline]
[1]; c(Cl–) = 100 mM
  logD at 4 h: 3.69
MCF-7; [4]
  IC50: 0.59 µM
MCF-7; [5]
  IC50: 0.589 µM
MDA-MB-231; [6]
  IC50: 0.76 µM
MDA-MB-231; [7]
  IC50: 0.759 µM
T47D; [6]
  IC50: 0.63 µM
T47D; [7]
  IC50: 0.631 µM
[2]
  IC50: 0.59 to 0.76 µM

## Cc1c(C)c(C)[c-](C)c1C.Clc1ccnc2c1ccc1c(Cl)ccnc12.[Cl-].[Cl-].[Rh+3] [RhCp*DCP, [Rh(III)(η^5-C5Me5)(4,7-dichloro-1,10-phenanthroline)Cl]Cl]
[1]; c(Cl–) = 4 mM
  logD: –1.03 ± 0.03
[1]; c(Cl–) = 24 mM
  logD: –0.59 ± 0.02
[1]; c(Cl–) = 100 mM
  logD: –0.38 ± 0.02
MCF-7; [3]
  IC50: 5.92 µM
MCF-7
  pIC50 (mean): 5.23
MDA-MB-231; [3]
  IC50: 7.56 µM
MDA-MB-231
  pIC50 (mean): 5.12
T47D; [3]
  IC50: 7.36 µM
T47D
  pIC50 (mean): 5.13
[2]
  IC50: 5.9 to 7.6 µM
